Measured values from patent US20130171198A1, “ANTIMICROBIAL AND VULNERARY ACTION PHARMACEUTICAL COMPOSITION FOR EXTERNAL APPLICATION AND ITS PRODUCTION PROCESS” (priority 2010, published 2013).

Assays:
[1] = Incision model, rabbits, external application of solution/suspension; format: in vivo; conditions: for Incision length (cm) Me: 2.5% fosfomycin solution or 5% composition suspension
Experimental: (§1) The experiments were conducted using adult rabbits “Chinchilla” (males, weight 3-3.5 kg) and random bred guiney pigs (males, weight 0.8-0.9 kg) according to the “Regulations for test animals use” (USSR Ministry of health order supplement #755 from 12.08. 1977). There have been made several incisions with a sterile scalpel on the left and right side of the depilated coupling area (1.5% novocain solution was used for local anesthesia); incision 2 cm long and 0.8 cm deep with muscular layer seizure for guiney pigs and 2 cm long and 1 cm deep with muscular layer seizure for rabbits. Each day in 8 days period (starting with the very first day) the wounds of the animals control group was bathed with a sterile normal saline solution, were covered with a sterile tissue fixed with a plaster. The wounds of the test group animals were bathed with a sterile saline solution, then dried and then dusted with fosfomycin sterile powder uniform layer (2-3 mm) or a same layer pharmaceutical composition (for guiney pigs), the wounds of the test rabbits were irrigated with a sterile 2.5% fosfomycin solution or sterile 5% pharmaceutical composition suspension, after that they were dried and covered with a sterile tissue fixed with a plaster. The regenerative process dynamics was monitored during 9 days. The medics measured the length of the wound open area and made a visual evaluation of wound edges and walls, the presence and character of the exudates, necrosis presence. The test results can be seen in Tables No 2 and No 3. The statistical data processing has been made with a program Statistica 6.0. The experimental data are presented as median (Me), Low and High quartile (LQ-HQ), the difference authenticity has been calculated using Student t-criterion with p<0.05 values.

[2] = Fosfomycin sorption by BHSiO2 particles; format: physicochemical
Source text: Fosfomycin sorption rate by BHSiO2 particles was 20-25%.

[3] = Incision model, guiney pigs, external application of powder; format: in vivo; conditions: for Incision length (cm) Me: powder form, external application daily
Experimental: as §1

[4] = test system: infected S. aureus thermal burn; assay: Infected thermal burn model, guiney pigs; format: in vivo; conditions: for Necrosis area (cm^2) / Thermal burn area (cm^2): 2.5% solution or 5% suspension
Experimental: The experiments were conducted using adult rabbits “Chinchilla” (males, weight 3-3.5 kg) and random bred guiney pigs (males, weight 0.8-0.9 kg) according to the “Regulations for test animals use” (USSR Ministry of health order supplement #755 from 12.08. 1977). There have been made several skin integument burnings with a warmed up on the burner flame metallic applicator on the left and right side of the depilated coupling area (1.5% novocain solution was used for local anesthesia) by attaching it to the skin and holding for 40 seconds. In the center of the ambustial area there has been intracutaneously inserted Staphylococcus aureus (ATCC No 25923 F-49) daily suspension with a 0.1 ml volume in a 10^10 CFU/ml dosage. Each day in 13 days period (starting with the very first day) the burnings of the animals control group was bathed with a sterile normal saline solution, dried and covered with a sterile tissue fixed with a plaster. The burnings of the test animals were irrigated with a sterile 2.5% fosfomycin solution or sterile 5% pharmaceutical composition suspension, after that they were dried and covered with a sterile tissue fixed with a plaster. The burnings condition dynamics was monitored during 14 days. The medics measured the burning wound surface and necrosis area in the center of the burning wound. You may see the results in the table No 4. The statistical data processing has been made with a program Statistica 6.0. The experimental data are presented as median (Me), Low and High quartile (LQ-HQ), the difference authenticity has been calculated using Student t-criterion with p<0.05 values.

[5] = 2.5% solution / 5% water suspension

C[C@@H]1O[C@@H]1P(=O)(O)O [Fosfomycin, fosfomycin]
Incision length (cm) Me ([1]; Day 2): 0.5 cm | Incision length (cm) Me ([1]; Day 6): 0.4 cm | Incision length (cm) Me ([1]; Day 9): 0.25 cm | Incisions regeneration process versus control group [1, 5]: authentically increase incisions regeneration process comparing to the control group | Fosfomycin sorption rate by BHSiO2 particles [2]: 20-25% | Incision length (cm) Me ([3]; Day 2): 0.9 cm | Incision length (cm) Me ([3]; Day 6): 0.5 cm | Incision length (cm) Me ([3]; Day 9): 0.3 cm | Incisions regeneration process versus control group ([3]; powder forms): authentically increase incisions regeneration process comparing to the control group | Infected S. aureus thermal burn regeneration process versus control group [4, 5]: authentically increase infected S. aureus thermal burn regeneration process comparing to the control group | Necrosis area (cm^2) ([4]; Day 2): 0.0 cm^2 | Thermal burn area (cm^2) ([4]; Day 2): 1.2 cm^2 | Necrosis area (cm^2) ([4]; Day 6): 0.3 cm^2 | Thermal burn area (cm^2) ([4]; Day 6): 0.8 cm^2 | Necrosis area (cm^2) ([4]; Day 9): 0.25 cm^2 | Thermal burn area (cm^2) ([4]; Day 9): 0.7 cm^2 | Necrosis area (cm^2) ([4]; Day 14): 0.2 cm^2 | Thermal burn area (cm^2) ([4]; Day 14): 0.4 cm^2
